Test results published in US11319306B2, “Compositions and methods for treating neurodegenerative diseases” (Azevan Pharmaceuticals, Inc., priority 2014, dated 2022).
Where two headings read alike, the source gives them in different places.

Columns and labels:
human brain = assay: fMRI BOLD imaging of test subjects given intranasal AVP (neurodegenerative disease model), emotional faces task; assay type: in vivo; conditions: following IN-AVP, compared to placebo
Protocol: Neurodegenerative disease (ND) model. Test subjects are randomized to an ND model group (for example, n=15), and a baseline control group (for example, n=14). The ND model group is administered intranasal arginine vasopressin (IN-AVP), 40 IU Pitressin (JHP Pharmaceuticals) in a sterile aqueous solution. IN-AVP doses are administered in 3 mL intranasal atomizers (MAD300; Wolfe Tory Medical, Salt Lake City) 45 minutes prior to fMRI imaging. The baseline control group is administered intranasal vehicle only. All test subjects are evaluated by fMRI imaging.
fMRI imaging. Data are acquired with a Philips Achieva Quasar dual 16 Channel 3T MRI scanner at the University of Chicago Brain Research Imaging Center using a reverse spiral imaging sequence to minimize ventral brain signal dropout. […] Categories include: angry faces, neutral faces, happy faces, and a fixation point. Test subjects are given the “implicit” task of identifying the gender of each image by button press. Statistical parametric maps are generated based on pre-processed 3 mm^3 images that are spatially smoothed with an 8 mm kernel, bandpass filtered to remove drift, checked for excessive movement, and movement-corrected. Images from each individual are warped to an echoplanar image template in Montreal Neurological Institute space. Voxelwise whole brain analysis is conducted on data thresholded at >10 contiguous voxels, with small volume correction p<0.05, to examine effects of test compound versus placebo on BOLD activity in a priori regions of interest (ROI). ROIs of the identified clusters of BOLD differences are extracted as parameter estimates of average BOLD signal intensity in anatomically defined substructures and exported into SPSS (IBM; Armont, N.Y.) for ANCOVA, covarying for baseline parameter estimates in matching ROIs. Extracted parameter estimates of a priori ROIs are also examined with RM-ANOVA in SPSS with the within subjects factor and between subjects factors of all combinations of test compound versus placebo, and IN-AVP versus intranasal placebo. Comparisons are made between emotion conditions (angry faces) and various neutral conditions (neutral faces, happy faces, fixation points). Comparisons are also made between emotion conditions (neutral faces) and various neutral conditions (happy faces, fixation points).
Neuropsychiatric symptom treatment with vasopressin antagonists. A first group of test subjects in a baseline control group receiving intranasal placebo is randomized to test compound or placebo. A second group of test subjects in a ND model group receiving IN-AVP is randomized to test compound or placebo. Test compound, such as SRX228, SRX246, SRX251, SRX296, or SRX576, or placebo is administered in blinded form for 5-10 days (mean 7.3+/−1.3 days; minimum 5 days; […]) prior to fMRI. Alternatively, test compound, such as SRX228, SRX246, SRX251, SRX296, and SRX576, or placebo is administered in blinded form after IN-AVP or intranasal placebo administration, and prior to fMRI. […] For example, test compound is SRX246 (n=15; 80, 120, or 160 mg po bid) versus placebo (n=14) in oral capsules; or test compound is SRX251 (n=15; 80, 120, or 160 mg po bid) versus placebo (n=14) in oral capsules.

Pharmacokinetics = assay type: in vivo; conditions: b.i.d. dosing
Text: Pharmacokinetics. Compounds described herein are rapidly absorbed after oral administration. Compounds described herein cross the blood-brain-barrier and achieve therapeutically effective concentrations in the CNS. Compounds described herein may be dosed according to a wide variety of protocols, including but not limited to q.d., b.i.d., and the like.

awake rats = assay: Resident-intruder model of stress and aggression in rats, awake fMRI neuroimaging; assay type: in vivo, rat; conditions: pretreatment 5 mg/kg 90 minutes before test session, mate + intruder; listed as AVN246
Text: Resident-intruder model of stress and aggression in rats. Neuroimaging is used to assess the blockade of stress/arousal with test compound compared to control. The effect of AVN251-HCl on functional circuitry was examined using the imaging method for awake rats. Additional details of the assay are described in Ferris et al. Imaging the neural circuitry and chemical control of aggressive motivation.
Male rats in the company of a female cage mate piloerect in the presence of a male intruder. Piloerection is a sign of stress and aggressive intent and is associated with activation of stress/arousal circuits in the brain. Stress circuit activation in response to an intruder male is assessed by obtaining brain scans viewed from a caudal/dorsal perspective as translucent shells. The localization of activated voxels is mapped as 3D volumes of activation, which are composed of 10 subjects each. Once fully registered and segmented, the statistical responses for each subject are averaged on a voxel-by-voxel basis. Those averaged voxels exceeding a 2.0% threshold are shown in their appropriate spatial location. Functional images are acquired on awake rats at 4.7 T.
Resident male rats from six male/female pairs are imaged while fully awake, and presented with their mate, or their mate+an intruder, a highly stressful stimulus. […] The total volume of brain activation for resident males confronted with their mate alone, mate plus intruder, and mate plus intruder in the presence of AVN251-HCl are viewed as 3D models.
Awake rats are imaged when presented with their mate, or their mate+an intruder. […] In each scan, the dark shaded areas represent activation of vasopressin receptor signaling.

human V1a receptor = biological target: T1, human V1a receptor (Homo sapiens, UniProt P37288); assay: Human vasopressin V1a receptor binding assay (3H-AVP competition, hV1a CHO cells)
T1 construct: host or cells: CHO cells (hV1a cell line)
T1 sequence (P37288 whole entry): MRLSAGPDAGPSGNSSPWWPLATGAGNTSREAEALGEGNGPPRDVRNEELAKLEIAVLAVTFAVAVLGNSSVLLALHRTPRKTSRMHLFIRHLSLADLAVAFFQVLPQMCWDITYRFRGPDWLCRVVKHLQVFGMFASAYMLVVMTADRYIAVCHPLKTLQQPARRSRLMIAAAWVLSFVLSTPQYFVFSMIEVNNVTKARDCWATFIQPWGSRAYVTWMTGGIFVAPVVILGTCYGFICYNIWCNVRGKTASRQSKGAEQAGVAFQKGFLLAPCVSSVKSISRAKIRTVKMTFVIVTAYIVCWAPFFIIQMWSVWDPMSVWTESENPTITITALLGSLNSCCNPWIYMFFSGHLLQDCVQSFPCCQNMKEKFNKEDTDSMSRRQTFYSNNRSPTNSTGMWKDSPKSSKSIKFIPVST
Summary of the method: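 Whole CHO cells expressing hV1a were incubated with 1 nM 3H-AVP (as printed "InM") and 10-fold dilutions of compound in HEPES/BSA/DMEM buffer, pH 7.0, for 45 min at 37 °C. Non-specific binding was defined with 100 nM cold AVP. Bound radioactivity was SDS-solubilised and counted by scintillation; IC50 from curve fitting.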

V1b receptor = biological target: T2, V1b receptor (Homo sapiens, UniProt P47901); assay: Human or rat vasopressin V1b cell-based receptor binding assay; conditions: receptor selectivity table; read-out: inhibition data Ki, V1b
T2 construct: expressed in transfected cells; host or cells: CHO-K1 (ATCC), vector pCI-neo, G418-selected clones
T2 sequence (P47901 1-424): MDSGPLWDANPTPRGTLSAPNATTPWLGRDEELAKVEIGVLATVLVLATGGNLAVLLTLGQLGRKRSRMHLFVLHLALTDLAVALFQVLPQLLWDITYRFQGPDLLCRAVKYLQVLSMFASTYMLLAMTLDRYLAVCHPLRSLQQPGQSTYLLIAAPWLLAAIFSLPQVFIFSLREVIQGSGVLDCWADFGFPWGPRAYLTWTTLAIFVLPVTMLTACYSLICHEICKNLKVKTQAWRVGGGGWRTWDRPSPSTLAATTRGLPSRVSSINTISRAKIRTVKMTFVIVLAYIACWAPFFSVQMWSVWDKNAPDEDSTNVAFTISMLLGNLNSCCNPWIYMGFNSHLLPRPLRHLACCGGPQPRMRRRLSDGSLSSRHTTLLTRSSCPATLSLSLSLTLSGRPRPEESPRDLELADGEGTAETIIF
Text: Human vasopression V1b receptor-expressing cells. Human vasopressin receptor 1b (hV1b) cDNA (see, Lolait et al., “Extrapituitary expression of the rat V1b vasopressin receptor gene” Proc. Natl. Acad. Sci. USA. 92:6783-7 (1995); de Keyzer et al., “Cloning and characterization of the human V3(V1b) pituitary vasopressin receptor” FEBS Lett. 356:215-20 (1994); Sugimoto et al., “Molecular cloning and functional expression of a cDNA encoding the human V1b vasopressin receptor” J. Biol. Chem. 269:27088-92 (1994)) was inserted into a mammalian cell expression vector PCI-neo (Promega) at EcoR1 site. The recombinant plasmid carrying hV1b cDNA was identified from transformed E. Coli clones and used for the transfection of Chinese hamster ovary cell (CHO-Kl, ATCC). Two micrograms of hV1b receptor DNA was introduced into 10^5 CHO cells cultured in 6-well plate, using Fugene-6 mediated transfection technique (Boehringer Mannheim). Twenty-four hrs post transfection, Cells were then cultured under selection of G-418 (0.25 mg/ml) supplemented to the culture medium. Three days later, limited dilution was carried out to obtain single cell clones in 96-well plates. […]
Human or rat vasopression V1b cell-based receptor binding assay. […] Samples were counted in a liquid scintillation counter (Beckman LS3801). IC50 and Ki values were calculated using Prism Curve fitting software. […]

V2 = V2 (Homo sapiens, UniProt P30518); assay: V2 receptor inhibition data (Ki); assay type: binding; conditions: receptor selectivity table
V2, sequence (P30518 whole entry): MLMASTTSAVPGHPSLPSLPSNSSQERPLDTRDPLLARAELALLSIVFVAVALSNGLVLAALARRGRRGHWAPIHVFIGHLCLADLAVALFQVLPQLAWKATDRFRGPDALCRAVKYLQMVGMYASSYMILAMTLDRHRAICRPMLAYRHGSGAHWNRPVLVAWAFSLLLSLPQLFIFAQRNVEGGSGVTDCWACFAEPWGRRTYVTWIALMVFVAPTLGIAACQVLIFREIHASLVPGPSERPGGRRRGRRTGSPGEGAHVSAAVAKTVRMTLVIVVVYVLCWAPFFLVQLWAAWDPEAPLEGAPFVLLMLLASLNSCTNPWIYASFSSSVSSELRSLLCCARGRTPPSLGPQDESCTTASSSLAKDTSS

Row | T1/2 (Pharmacokinetics) | accumulation (Pharmacokinetics) [fold] | IC50 (human V1a receptor; 3H-AVP competition, CHO cells expressing human V1a, read-out: V1a Binding Affinity IC50) [nM] | Ki (human V1a receptor; 3H-AVP competition, CHO cells expressing human V1a, read-out: V1a Ki) [nM] | Ki (human V1a receptor; receptor selectivity table, read-out: inhibition data Ki, V1a) [nM] | Ki (V1b receptor) [nM] | Ki (V2) [nM] | SMILES | BOLD activation signal in anterior cingulate cortex and medial prefrontal cortex (human brain; posttreatment, angry faces versus happy faces) | BOLD activation signal in temporoparietal cortex (Brodmann Area 39) and amygdala (human brain; posttreatment, angry faces versus happy faces, p<0.05) | BOLD activation signal in temporoparietal cortex (Brodmann Area 39) and amygdala (human brain; pretreatment, angry faces versus fixation point, p<0.001) | BOLD activation signal in medial prefrontal cortex (human brain; pretreatment, angry faces versus fixation point, p<0.005) | cortical reactivity to angry faces in anterior cingulate cortex and medial superior prefrontal cortex (human brain; pretreatment) | stress/arousal response in amygdala, cortex, hippocampus and thalamus (awake rats)
1 | improved | 1.7 |  |  |  |  |  | C[C@@H](NC(=O)[C@@H](CC(=O)N1CCC(N2CCCCC2)CC1)N1C(=O)[C@@H](N2C(=O)OC[C@@H]2c2ccccc2)[C@H]1/C=C/c1ccccc1)c1ccccc1 [Example 224, 2(R)-[[4-(Piperidinyl)piperidinyl]carbonylmethyl]-2-[3(S)-(4(S)-phenyloxazolidin-2-on-3-yl)-4(R)-(2-styryl)azetidin-2-on-1-yl]acetic acid N—[(R)-α-methylbenzyl]amide] | significantly decreases | significantly decreases | significantly decreases | significantly decreases | significantly attenuated | blocked the stress/arousal response
2 |  |  | 1.8 | 1.1 | 1.1 | > 100 | > 1000 | C[C@@H](NC(=O)[C@@H](CC(=O)N1CCC(N2CCCCC2)CC1)N1C(=O)[C@@H](N2C(=O)OC[C@@H]2c2ccccc2)[C@H]1/C=C/c1cccc(I)c1)c1ccccc1 [Example 266] |  |  |  |  |  | 
